According to patent US10064865B2, “Composition comprising phosphodiesterase type 5 inhibitor for inhibiting apoptosis of nerve cells” (ARIBIO INC., priority 2012, dated 2018):
Marks after values point to notes of the source that are not given here.

Tests used:
[1] = test system: neuron apoptosis-operated rats; experiment: Example 2 forelimb placing test; assay type: in vivo, Sprague-Dawley (SD) rats
Method: Sensorimotor function was evaluated by use of limb placing (de Ryck M et al., Stroke. 20:1383-90(1989)) and body swing (Borlongan and Sanberg, J Neurosci. 15:5372-8(1995)) tests. These tests were performed at 1 and 28 days after neuron apoptosis. The investigator performing the surgery and behavioral assessments was blinded to treatment assignment.
Limb placing test: Forelimb and hindlimb placement were assessed independently. For the forelimb placing test, the rats were held by their torso with their forepaws hanging free and moved slowly toward the edge of a tabletop, stopping short of touching the vibrissae (for vision-induced placing), touching the vibrissae (for vibrissae-induced placing), making light contact with the front of the forepaw to the edge of the tabletop (for tactile-induced placing), and pressing the forepaws to the edge of the table with increased pressure (for proprioceptive-induced placing). Hindlimb placing was conducted in the same manner as above but with tactile and proprioceptive stimulation applied to the front/top of each hindlimb. Each limb for placing in response to visual, vibrissae, tactile, and proprioceptive stimulation are scored in the following manner: normal performance=0 points; performance with unilateral limb=1 point; performance with a delay (2 seconds) and/or incomplete=2 point; no performance=3 points. A total of 12 points in forelimb placing test and 6 points in hindlimb placing test means maximal neurological deficit, and 0 points means normal performance.
All data were expressed as mean±standard deviation (S.D.) of ten rats. Multiple comparison tests for different dose groups were conducted. Variance homogeneity was examined using the Levene test (Levene A, Clin Otalary, 1981; 6:145-51). […] In addition, the percent changes as compared with neuron apoptosis control and mirodenafil treated rats were calculated to help the understanding of the efficacy of test substances as follow Equation 6 and 7. […]

[2] = test system: neuron apoptosis-operated rats; experiment: Example 1 water tank task (cognitive motor behavior); assay type: in vivo, Sprague-Dawley (SD) rats
Method: Cognitive testing was conducted using the water tank task (J Neurosci Methods. 11:47-60(1984)). 14 and 28 after neuron apoptosis, the rats were given a series of 3 trials, 10 min apart in a large dark-colored tank (150 cm in diameters×50 cm in height) filled with clear water at a temperature of 22.0±1.0° C. A 15×30 cm submerged platform (2 mm below water surface) was placed in the northwest quadrant of the pool. The release point was always the southern end of the pool. The rats were lowered into the pool facing the wall and were released. The swim paths of the rats for each trials were recorded with a computer interfaced camera tracking system (Smart junior, PanLab, Spain), and the distances (m) and times (sec) taken to reach the escape platform were measured.
All data were expressed as mean±standard deviation (S.D.) of ten rats. Multiple comparison tests for different dose groups were conducted. Variance homogeneity was examined using the Levene test (Levene A, Clin Otalary, 1981; 6:145-51). […] Statistical analyses were conducted using SPSS (Release 14K, SPSS Inc., USA; Ludbrook, Clin Exp Pharmacol Physiol, 1997; 24:294-6). In addition, the percent changes between neuron apoptosis control and mirodenafil treated rats were calculated to help the understanding of the efficacy of test material as follow equation 3. Percentage changes as compared with neuron apoptosis control (%)=[((Data of mirodenafil treated groups−Data of neuron apoptosis control)/Data of neuron apoptosis control)×100] [EQUATION 3]

[3] = 0.5 mg/kg s.c. once a day, at 14 days, Mean of trials
[4] = 0.5 mg/kg s.c. once a day, at 14 days, trial 1
[5] = 0.5 mg/kg s.c. once a day, at 14 days, trial 2
[6] = 0.5 mg/kg s.c. once a day, at 14 days, trial 3
[7] = 0.5 mg/kg s.c. once a day, at 28 days, Mean of trials
[8] = 0.5 mg/kg s.c. once a day, at 28 days, trial 1
[9] = 0.5 mg/kg s.c. once a day, at 28 days, trial 2
[10] = 0.5 mg/kg s.c. once a day, at 28 days, trial 3
[11] = 1 mg/kg s.c. once a day, at 14 days, Mean of trials
[12] = 1 mg/kg s.c. once a day, at 14 days, trial 1
[13] = 1 mg/kg s.c. once a day, at 14 days, trial 2
[14] = 1 mg/kg s.c. once a day, at 14 days, trial 3
[15] = 1 mg/kg s.c. once a day, at 28 days, Mean of trials
[16] = 1 mg/kg s.c. once a day, at 28 days, trial 1
[17] = 1 mg/kg s.c. once a day, at 28 days, trial 2
[18] = 1 mg/kg s.c. once a day, at 28 days, trial 3
[19] = 2 mg/kg s.c. once a day, at 14 days, Mean of trials
[20] = 2 mg/kg s.c. once a day, at 14 days, trial 1
[21] = 2 mg/kg s.c. once a day, at 14 days, trial 2
[22] = 2 mg/kg s.c. once a day, at 14 days, trial 3
[23] = 2 mg/kg s.c. once a day, at 28 days, Mean of trials
[24] = 2 mg/kg s.c. once a day, at 28 days, trial 1
[25] = 2 mg/kg s.c. once a day, at 28 days, trial 2
[26] = 2 mg/kg s.c. once a day, at 28 days, trial 3

CCCOc1ccc(S(=O)(=O)N2CCN(CCO)CC2)cc1-c1nc2c(CCC)cn(CC)c2c(=O)[nH]1 [Mirodenafil, mirodenafil]
forelimb placing test scores at 28 days, change as compared with neuron apoptosis control ([1]; 1 mg/kg from 24 hrs after surgery): −57.41%
forelimb placing test scores at 28 days, change as compared with neuron apoptosis control ([1]; 1 mg/kg from 72 hrs after surgery): −29.63%
forelimb placing test scores at 28 days, change as compared with neuron apoptosis control ([1]; 1 mg/kg from 168 hrs after surgery): −11.11%
The distance to reach the escape platform [2, 3]: 13.36 ± 0.81^a m
The time to reach the escape platform [2, 3]: 119.6 ± 9.53^ad sec
The distance to reach the escape platform [2, 4]: 15.89 ± 1.14 m
The time to reach the escape platform [2, 4]: 149.8 ± 11.05^a sec
The distance to reach the escape platform [2, 5]: 13.35 ± 1.02^ad m
The time to reach the escape platform [2, 5]: 118.0 ± 10.38^ad sec
The distance to reach the escape platform [2, 6]: 10.83 ± 0.85^a m
The time to reach the escape platform [2, 6]: 91.0 ± 11.49^ac sec
The distance to reach the escape platform [2, 7]: 11.38 ± 0.76^ac m
The time to reach the escape platform [2, 7]: 92.1 ± 9.98^ac sec
The distance to reach the escape platform [2, 8]: 13.24 ± 0.83^ad m
The time to reach the escape platform [2, 8]: 113.7 ± 9.57^ac sec
The distance to reach the escape platform [2, 9]: 11.22 ± 1.08^ad m
The time to reach the escape platform [2, 9]: 88.5 ± 12.48^ac sec
The distance to reach the escape platform [2, 10]: 9.68 ± 0.75^ef m
The time to reach the escape platform [2, 10]: 74.1 ± 10.58^ac sec
distances to reach the escape platform, change as compared with neuron apoptosis control ([2]; 0.5 mg/kg, trial 1 of 28 days): −9.80%
time to reach the escape platform, change as compared with neuron apoptosis control ([2]; 0.5 mg/kg, trial 1 of 28 days): −11.45%
distances to reach the escape platform, change as compared with neuron apoptosis control ([2]; 0.5 mg/kg, trial 2 of 14 days): −7.93%
time to reach the escape platform, change as compared with neuron apoptosis control ([2]; 0.5 mg/kg, trial 2 of 14 days): −10.47%
distances to reach the escape platform, change as compared with neuron apoptosis control ([2]; 0.5 mg/kg, trial 2 of 28 days): −14.02%
time to reach the escape platform, change as compared with neuron apoptosis control ([2]; 0.5 mg/kg, trial 2 of 28 days): −22.23%
distances to reach the escape platform, change as compared with neuron apoptosis control ([2]; 0.5 mg/kg, trial 3 of 14 days): −9.42%
time to reach the escape platform, change as compared with neuron apoptosis control ([2]; 0.5 mg/kg, trial 3 of 14 days): −18.37%
distances to reach the escape platform, change as compared with neuron apoptosis control ([2]; 0.5 mg/kg, trial 3 of 28 days): −17.56%
time to reach the escape platform, change as compared with neuron apoptosis control ([2]; 0.5 mg/kg, trial 3 of 28 days): −29.16%
The distance to reach the escape platform [2, 11]: 12.83 ± 1.29^ac m
The time to reach the escape platform [2, 11]: 116.7 ± 6.30^ac sec
The distance to reach the escape platform [2, 12]: 15.93 ± 1.21 m
The time to reach the escape platform [2, 12]: 150.9 ± 9.00^a sec
The distance to reach the escape platform [2, 13]: 12.89 ± 1.61^ac m
The time to reach the escape platform [2, 13]: 115.3 ± 8.19^ac sec
The distance to reach the escape platform [2, 14]: 9.66 ± 1.42^ac m
The time to reach the escape platform [2, 14]: 83.9 ± 10.10^ac sec
The distance to reach the escape platform [2, 15]: 9.39 ± 1.33^ac m
The time to reach the escape platform [2, 15]: 81.0 ± 8.68^ac sec
The distance to reach the escape platform [2, 16]: 12.65 ± 1.24^ac m
The time to reach the escape platform [2, 16]: 106.6 ± 10.52^bc sec
The distance to reach the escape platform [2, 17]: 9.33 ± 2.17^ac m
The time to reach the escape platform [2, 17]: 78.4 ± 13.55^ac sec
The distance to reach the escape platform [2, 18]: 6.19 ± 1.93^ef m
The time to reach the escape platform [2, 18]: 58.1 ± 9.22^ac sec
distances to reach the escape platform, change as compared with neuron apoptosis control ([2]; 1 mg/kg, trial 1 of 28 days): −13.80%
time to reach the escape platform, change as compared with neuron apoptosis control ([2]; 1 mg/kg, trial 1 of 28 days): −16.98%
distances to reach the escape platform, change as compared with neuron apoptosis control ([2]; 1 mg/kg, trial 2 of 14 days): −11.07%
time to reach the escape platform, change as compared with neuron apoptosis control ([2]; 1 mg/kg, trial 2 of 14 days): −12.52%
time to reach the escape platform, change as compared with neuron apoptosis control ([2]; 1 mg/kg, trial 2 of 28 days): −31.11%
distances to reach the escape platform, change as compared with neuron apoptosis control ([2]; 1 mg/kg, trial 3 of 14 days): −19.20%
time to reach the escape platform, change as compared with neuron apoptosis control ([2]; 1 mg/kg, trial 3 of 14 days): −24.82%
distances to reach the escape platform, change as compared with neuron apoptosis control ([2]; 1 mg/kg, trial 3 of 28 days): −47.33%
time to reach the escape platform, change as compared with neuron apoptosis control ([2]; 1 mg/kg, trial 3 of 28 days): −44.46%
The distance to reach the escape platform [2, 19]: 12.79 ± 0.64^ac m
The time to reach the escape platform [2, 19]: 116.6 ± 10.88^ac sec
The distance to reach the escape platform [2, 20]: 16.18 ± 1.49 m
The time to reach the escape platform [2, 20]: 151.2 ± 10.59^a sec
The distance to reach the escape platform [2, 21]: 12.68 ± 0.82^ac m
The time to reach the escape platform [2, 21]: 115.9 ± 12.51^ac sec
The distance to reach the escape platform [2, 22]: 9.52 ± 1.27^ac m
The time to reach the escape platform [2, 22]: 82.7 ± 15.17^ac sec
The distance to reach the escape platform [2, 23]: 9.46 ± 1.25^ac m
The time to reach the escape platform [2, 23]: 80.6 ± 6.63^ac sec
The distance to reach the escape platform [2, 24]: 12.62 ± 1.21^ac m
The time to reach the escape platform [2, 24]: 106.5 ± 9.79^bc sec
The distance to reach the escape platform [2, 25]: 9.18 ± 1.46^ac m
The time to reach the escape platform [2, 25]: 78.2 ± 8.19^ac sec
The distance to reach the escape platform [2, 26]: 6.56 ± 1.85^ef m
The time to reach the escape platform [2, 26]: 57.2 ± 6.43^ac sec
distances to reach the escape platform, change as compared with neuron apoptosis control ([2]; 2 mg/kg, trial 1 of 28 days): −14.01%
time to reach the escape platform, change as compared with neuron apoptosis control ([2]; 2 mg/kg, trial 1 of 28 days): −17.06%
distances to reach the escape platform, change as compared with neuron apoptosis control ([2]; 2 mg/kg, trial 2 of 14 days): −12.54%
time to reach the escape platform, change as compared with neuron apoptosis control ([2]; 2 mg/kg, trial 2 of 14 days): −12.06%
distances to reach the escape platform, change as compared with neuron apoptosis control ([2]; 2 mg/kg, trial 2 of 28 days): −29.65%
time to reach the escape platform, change as compared with neuron apoptosis control ([2]; 2 mg/kg, trial 2 of 28 days): −31.28%
distances to reach the escape platform, change as compared with neuron apoptosis control ([2]; 2 mg/kg, trial 3 of 14 days): −20.37%
time to reach the escape platform, change as compared with neuron apoptosis control ([2]; 2 mg/kg, trial 3 of 14 days): −25.90%
distances to reach the escape platform, change as compared with neuron apoptosis control ([2]; 2 mg/kg, trial 3 of 28 days): −44.14%
time to reach the escape platform, change as compared with neuron apoptosis control ([2]; 2 mg/kg, trial 3 of 28 days): −45.32%
